# Measurements reported in paper PMC6838324, “A suicide inhibitor of nematode trehalose-6-phosphate phosphatases” (Scientific Reports, 2019).
# Where “and” joins values, the source holds several entries; their conditions need not be identical. Identical values can stand only once. Entries after “also recorded” stand apart in the source; their conditions may differ. Like-named read-outs stand apart in the source and are kept apart here.
# Key:
# Acey-TPP = Acey-TPP (Ancylostoma ceylanicum, UniProt A0A016UGW6); experiment: biochemical; conditions: for inhibition at 25 µM: read-out: inhibition of Acey-TPP enzyme activity
# Sequence of Acey-TPP (A0A016UGW6 entry or part of it): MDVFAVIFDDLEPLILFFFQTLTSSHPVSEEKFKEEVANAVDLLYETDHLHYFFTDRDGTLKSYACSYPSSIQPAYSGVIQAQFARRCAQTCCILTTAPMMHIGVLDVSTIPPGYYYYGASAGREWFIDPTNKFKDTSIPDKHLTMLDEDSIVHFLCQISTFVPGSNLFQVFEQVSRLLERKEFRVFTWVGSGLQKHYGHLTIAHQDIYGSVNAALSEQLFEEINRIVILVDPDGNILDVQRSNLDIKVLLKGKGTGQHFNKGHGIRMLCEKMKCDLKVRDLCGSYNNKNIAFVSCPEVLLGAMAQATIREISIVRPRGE
# Method: (§1) Compounds were prepared in stocks of increasing concentration such that only 2 μL was added to reaction wells, thus keeping the DMSO concentration consistent at 4%. Enzyme in the absence of compound (with DMSO only) was run as a control and after correction for background absorbance, all test wells were scaled relative to the enzyme-only control. IC50 values were determined through fitting using either the software application SDAR[50] or DRfit[51].
# Hcon-TPP1 = Hcon-TPP1 (Haemonchus contortus, UniProt A0A7I4Z3L8); experiment: biochemical; conditions: for inhibition at 25 µM: read-out: inhibition of Hcon-TPP1 enzyme activity; for Ki: read-out: app. Ki, Hcon-TPP1, assuming a competitive inhibition model
# Sequence of Hcon-TPP1 (A0A7I4Z3L8 entry or part of it): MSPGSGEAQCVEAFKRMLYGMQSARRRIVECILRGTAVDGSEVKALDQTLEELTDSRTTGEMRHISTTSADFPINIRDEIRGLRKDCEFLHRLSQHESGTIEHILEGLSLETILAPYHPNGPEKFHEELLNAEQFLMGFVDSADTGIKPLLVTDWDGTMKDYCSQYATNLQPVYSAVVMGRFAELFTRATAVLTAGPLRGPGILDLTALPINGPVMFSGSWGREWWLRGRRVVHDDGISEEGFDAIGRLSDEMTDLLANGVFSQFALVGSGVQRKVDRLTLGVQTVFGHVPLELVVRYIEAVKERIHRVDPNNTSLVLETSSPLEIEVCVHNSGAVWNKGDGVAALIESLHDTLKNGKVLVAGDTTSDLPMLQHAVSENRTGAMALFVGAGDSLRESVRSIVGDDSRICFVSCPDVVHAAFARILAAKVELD
# Method: as §1
# Tcan-TPP = Tcan-TPP (Toxocara canis, UniProt A0A0B2V3X6); experiment: biochemical; format: biochemical
# Sequence of Tcan-TPP (A0A0B2V3X6 entry or part of it): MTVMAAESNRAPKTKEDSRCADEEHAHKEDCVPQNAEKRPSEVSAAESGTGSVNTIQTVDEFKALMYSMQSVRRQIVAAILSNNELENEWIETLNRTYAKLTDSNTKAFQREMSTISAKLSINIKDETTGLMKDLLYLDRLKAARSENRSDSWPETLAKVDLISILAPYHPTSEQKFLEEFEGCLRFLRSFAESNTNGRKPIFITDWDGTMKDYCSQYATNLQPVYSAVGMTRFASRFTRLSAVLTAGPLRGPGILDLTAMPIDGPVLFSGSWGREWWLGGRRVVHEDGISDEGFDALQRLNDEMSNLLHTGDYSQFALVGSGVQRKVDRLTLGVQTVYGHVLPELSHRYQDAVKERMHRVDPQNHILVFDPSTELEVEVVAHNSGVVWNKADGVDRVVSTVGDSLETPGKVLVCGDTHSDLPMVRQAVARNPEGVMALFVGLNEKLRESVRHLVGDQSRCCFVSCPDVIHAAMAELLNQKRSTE
# Method: as §1
# Paer-ecTPP = Paer-ecTPP (Pseudomonas aeruginosa, UniProt B3G2E1); experiment: Phosphatase end-point assay, extra-chromosomal TPP from P. aeruginosa; format: biochemical
# Sequence of Paer-ecTPP (B3G2E1 entry or part of it): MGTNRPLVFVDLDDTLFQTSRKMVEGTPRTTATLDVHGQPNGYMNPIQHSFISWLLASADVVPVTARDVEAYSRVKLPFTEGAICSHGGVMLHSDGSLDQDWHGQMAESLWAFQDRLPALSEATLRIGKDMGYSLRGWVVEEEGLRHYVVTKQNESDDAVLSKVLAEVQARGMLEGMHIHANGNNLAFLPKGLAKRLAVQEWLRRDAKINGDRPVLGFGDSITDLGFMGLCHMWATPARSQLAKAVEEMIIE
# Method: as §1
# TPP from M. tuberculosis = TPP from M. tuberculosis (Mycobacterium tuberculosis, UniProt P9WFZ5); experiment: Phosphatase end-point assay, M. tuberculosis TPP; format: biochemical; conditions: 25 μM compound
# Sequence of TPP from M. tuberculosis (P9WFZ5 whole entry, looked up): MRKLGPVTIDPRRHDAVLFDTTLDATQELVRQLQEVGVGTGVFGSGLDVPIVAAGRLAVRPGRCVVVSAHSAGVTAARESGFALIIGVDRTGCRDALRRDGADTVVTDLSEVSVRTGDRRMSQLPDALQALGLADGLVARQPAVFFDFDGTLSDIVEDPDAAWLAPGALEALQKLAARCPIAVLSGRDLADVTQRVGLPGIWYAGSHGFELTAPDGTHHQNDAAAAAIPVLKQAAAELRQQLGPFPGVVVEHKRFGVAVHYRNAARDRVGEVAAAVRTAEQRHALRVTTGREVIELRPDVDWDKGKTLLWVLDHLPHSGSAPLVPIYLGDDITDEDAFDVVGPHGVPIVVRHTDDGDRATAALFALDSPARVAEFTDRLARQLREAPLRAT
# Tcan-TPP-C215S = experiment: Phosphatase end-point assay, C215S mutant of T. canis TPP; format: biochemical, Toxocara canis; conditions: 25 μM compound
# T. cati L3 larvae = experiment: L3 larvae survival assay, T. cati; format: cell-based
# Method: (§2) Control larvae were maintained in 0.4% DMSO in Minimal Essential Medium. The survival of L3s exposed to the compound was assessed at several time points after the start of the incubation using a light microscope (at 40× maginification).
# T. canis L3 larvae = experiment: L3 larvae survival assay, T. canis; format: cell-based
# Method: as §2
# H. contortus xL3 larvae = experiment: Motility assay of exsheathed third-stage larvae (xL3) of H. contortus; format: cell-based, Haemonchus contortus; conditions: 25 μM and 100 μM compound
# Method: The effects of compound 1 were assessed in a motility assay using exsheathed third-stage larvae (xL3s) of H. contortus in 96-well microculture plates (Corning 3635; Life Sciences, USA) and the control compounds moxidectin and monepantel, following the published protocol. In brief, 1 was diluted to the final concentration of 100 µM using Luria Bertani medium (LB) supplemented with 100 IU/mL of penicillin, 100 μg mL^−1 of streptomycin and 2.5 μg mL^−1 of amphotericin (LB*), and then dispensed in triplicate into wells of a 96-well microculture plate using a multichannel pipette. Additionally, the negative controls (LB*, LB* + 0.5% solvent; six wells each), and positive controls (20 µM monepantel; Zolvix, Novartis Animal Health, Switzerland and 20 µM moxidectin; Cydectin, Virbac, France; triplicate wells) and xL3s (~300 per well) were dispensed into wells of the plate using an automated multichannel pipette. Following incubation at 38 °C and 10% CO2 for 72 h, a video recording of 5 s duration was taken of each well using a grayscale camera (Rolera Bolt, QImaging, Canada) and a motorized X-Y axis stage (BioPoint2, Ludl Electronic Products, USA). Videos were processed to calculate a motility index (MI) using an algorithm described previously.
# TPP from S. pneumoniae = experiment: Phosphatase end-point assay, S. pneumoniae TPP; conditions: 25 μM compound
# Method: (§3) Phosphatase end-point assays were carried out following a previously established protocol[35]. Briefly, the phosphatase activity of Acey-TPP and Tcan-TPP was assessed using 500 μM trehalose-6-phosphate and 10 μM enzyme to be tested. Reactions were carried out in a volume of 50 μL in assay buffer (100 mM NaCl, 20 mM TRIS, pH 7.5). Individual compounds were added to the reaction mixtures at a final concentration of 25 μM, followed by incubation for 5 min before reactions were initiated by the addition of substrate (final DMSO concentration of 4%).
# (§4) Reactions were allowed to proceed for 5 min before quenching with 100 μL of BIOMOL® Green reagent (Enzo Life Sciences, New York, NY, USA). Absorbance at 620 nm was determined using a BioTek® Synergy 2 plate reader (BioTek, Winooski, VT, USA) after an incubation period of 15 min for colour development. All reactions were set up in triplicate in 96-well plates (Corning, Sigma-Aldrich, NSW, Australia) at 25 °C and control experiments in the absence of enzyme were used to correct for background absorbance.
# (§5) Raw data were exported as spreadsheets from the plate reader and assembled for statistical analysis with R[48] using the software jBar[49] for calculation of means and standard errors, background correction, normalisation and significance evaluation by a two-sided t-test.
# TPP from S. maltophilia = experiment: Phosphatase end-point assay, S. maltophilia TPP; conditions: 25 μM compound
# Method: as §3, §4, §5
# mycobacterial TPPs = tested on: mycobacterial TPPs; parameters: method as in PMID 30402996; conditions: cited from earlier work
# [1] = biological target: TPPs from different nematode and bacterial organisms; conditions: read-out: inhibition constants; cited from earlier work
# [2] = 25 μM compound, compared with uninhibited enzyme
# [3] = listed as N-(phenylthio)phthalimide
smiles,measurement,setting,value
"O=C1NC(=O)c2ccccc21 [Compound 3, phthalimide]",inhibition at 25 µM,Acey-TPP,≤ 20%
same,inhibition at 25 µM,Hcon-TPP1,≤ 20%
same,inhibition at 25 µM,Tcan-TPP; read-out: inhibition of Tcan-TPP enzyme activity,≤ 20%
"O=C1c2ccccc2C(=O)N1Sc1ccccc1 [Compound 1, N-(phenylthio)phthalimide]",inhibitory effect on phosphatase activity under reducing conditions,"Acey-TPP; 25 μM compound, 1 mM DTT, Acey-TPP",entirely suppressed
same,inhibition of Acey-TPP enzyme activity,Acey-TPP; [2],complete annihilation
same,inhibition at 25 µM,Acey-TPP,> 50%
same,concentration at which enzymatic activity is almost entirely suppressed,"Hcon-TPP1; H. contortus TPP, dose-response",> 25 µM
same,IC50,"Hcon-TPP1; Hcon-TPP1, phosphatase end-point assay",6.6 ± 0.36 µM
same,Ki,Hcon-TPP1,6 µM
same,Ki,Hcon-TPP1; [3],5.8 µM
same,inhibition at 25 µM,Hcon-TPP1,82%
same,IC50,Tcan-TPP,0.89 ± 0.037 µM
same,inhibitory effect on phosphatase activity under reducing conditions,"Tcan-TPP; 25 μM compound, 1 mM DTT, Tcan-TPP",entirely suppressed
same,inhibition of Tcan-TPP enzyme activity,Tcan-TPP; [2],complete annihilation
same,Ki,"Tcan-TPP; app. Ki, Tcan-TPP, assuming a competitive inhibition model",0.6 µM and 0.56 µM
same,inhibition of phosphatase activity,"Paer-ecTPP; 25 μM compound, P. aeruginosa extra-chromosomal TPP",susceptible to inhibition
same,Ki,"Paer-ecTPP; Paer-ecTPP, assuming a competitive inhibition model, read-out: app. Ki",2.1 µM
same,IC50,"Paer-ecTPP; Paer-ecTPP, phosphatase end-point assay",2.1 ± 0.19 µM
same,inhibition of phosphatase activity,TPP from M. tuberculosis,only the extra-chromosomal TPP from P. aeruginosa was susceptible to inhibition
same,effect on enzymatic activity of mutant Tcan-TPP-C215S,Tcan-TPP-C215S,did not affect the enzymatic activity
same,lethality,"T. cati L3 larvae; T. cati larvae, 100 μM, after 3 h",> 80%
same,LC50,"T. cati L3 larvae; Toxocara cati, 24 h, read-out: half maximum lethal concentration (IC50 in survival assay)",9.3 µM
same,lethality,"T. canis L3 larvae; T. canis larvae, 100 μM, after 24 h",> 80%
same,LC50,"T. canis L3 larvae; Toxocara canis, 24 h, read-out: half maximum lethal concentration",61 µM
same,motility of exsheathed H. contortus larvae (xL3),H. contortus xL3 larvae,only weakly impaired
same,motility of exsheathed H. contortus larvae (xL3),H. contortus xL3 larvae; [3],no bioactivity was observed; also recorded: no significant effects
same,inhibition of phosphatase activity,TPP from S. pneumoniae,only the extra-chromosomal TPP from P. aeruginosa was susceptible to inhibition
same,inhibition of phosphatase activity,TPP from S. maltophilia,only the extra-chromosomal TPP from P. aeruginosa was susceptible to inhibition
OCC1=C[C@@H](N[C@H]2C[C@H](CO)[C@@H](O[C@H]3O[C@@H](CO)[C@H](O)[C@@H](O)[C@@H]3O)[C@H](O)[C@H]2O)[C@H](O)[C@@H](O)[C@@H]1O [validamycin A],IC50,mycobacterial TPPs,12600 to 15000 µM
O=S(=O)(O)OC[C@H]1O[C@H](O[C@H]2O[C@H](CO)[C@@H](O)[C@H](O)[C@H]2O)[C@H](O)[C@@H](O)[C@@H]1O [trehalose-6-sulphate],Ki,[1],50 to 300 µM
